Target: T1, human EP1 receptor (Homo sapiens, UniProt P34995)
T1 construct: expressed in transfected cells; host or cells: HEK-293 cell membranes
T1 sequence (P34995 1-402): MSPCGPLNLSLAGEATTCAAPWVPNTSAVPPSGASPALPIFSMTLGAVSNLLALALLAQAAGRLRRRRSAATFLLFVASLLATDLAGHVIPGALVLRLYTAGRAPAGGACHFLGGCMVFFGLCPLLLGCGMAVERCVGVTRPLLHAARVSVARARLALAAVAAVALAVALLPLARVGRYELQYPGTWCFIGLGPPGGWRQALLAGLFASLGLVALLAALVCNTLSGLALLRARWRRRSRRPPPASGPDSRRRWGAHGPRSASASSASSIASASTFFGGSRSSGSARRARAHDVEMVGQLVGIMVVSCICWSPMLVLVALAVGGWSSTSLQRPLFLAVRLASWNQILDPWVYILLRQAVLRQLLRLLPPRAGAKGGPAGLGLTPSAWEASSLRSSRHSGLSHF
Assay: Human EP1 receptor radioligand binding assay
Details: transfected HEK-293 cell membranes, [3H]-PGE2 (10 nM), pH 6.0, 25 °C for 60 minutes
Experimental: To investigate binding properties of EP1 receptor ligands to human EP1 receptor, transfected HEK-293 cell membranes and [3H]-PGE2 (Perkin Elmer) were used. In 96-well plates the assay was carried out with a total reaction volume of 250 µl, containing 25 µl of membrane suspension (30 µg protein/well), 25 µl of [3H]-PGE2 (10 nM) in either absence or presence of 25 µl of either buffer or PGE2 (10 µM) for total and non-specific binding, respectively. Binding buffer contained 10 mM MES, 1 mM MgCl2 and 1 mM EDTA at pH 6.0. Plates were incubated at 25 °C for 60 minutes. After the incubation period, 200 µl of incubate were transferred to MultiScreen HTS, FB plates (Millipore), filtered and plates were washed 6 times with ice-cold 10 mM MES, 1 mM MgCl2 and 1 mM EDTA at pH 6.0. Filters were dried and counted in a MicroBeta scintillation counter (Perkin-Elmer) using EcoScint liquid scintillation cocktail.
Percentage inhibition was calculated relating compounds activity to the 0% inhibition of the wells incubated with 10 nM [3H]-PGE2 alone (total binding) and 100% inhibition of the wells incubated with 10 nM [3H]-PGE2 plus 10 µM PGE2 (non-specific binding). Competition binding curves were carried out by assaying 6 different concentrations with duplicated points. The inhibition constant (Ki) of each compound was calculated by the Cheng-Prusoff equation: Kl = IC50 /(1+⌊L⌋/KD) [formula] where IC50 is the concentration of compound that displaces the binding of radioligand by 50%, [L] is the free concentration of radioligand and KD is the dissociation constant of each radioligand. IC50 values were obtained by fitting the data with non-linear regression using XIFit software (IDBS).

| Structure (SMILES) | Ki |
| --- | --- |
| Cc1cc(C(=O)O)ccc1[C@H]1Nc2ccc(Cl)cc2[C@@H]2OCCC[C@H]12 (racemic) [Example 10, 4-((4aR, 5S, 10bR)-9-chloro-3,4,4a, 5,6, 10b-hexahydro-2H pyrano[3,2-c]quinolin-5-yl)-3-methylbenzoic acid] | < 0.1 µM |
| O=C(O)c1ccc([C@@H]2Nc3ccc(Br)cc3[C@@H]3OCCC[C@H]23)cc1 [Example 2, 4-((4aR,5R,10bR)-9-bromo-3,4,4a,5,6,10b-hexahydro-2H-pyrano[3,2-c]quinolin-5-yl)benzoic acid] | > 0.5 µM |
| COc1ccc2c(c1)[C@@H]1OCCC[C@@H]1[C@H](c1ccc(C(=O)O)cc1C)N2 [Example 5, 4-((4aR, 5R, 10bR)-3,4,4a, 5,6, 10b-hexahydro-9-methoxy-2H pyrano[3,2-c]quinolin-5-yl)-3-methylbenzoic acid] | 0.1 to 0.5 µM |
| Cc1ccc2c(c1)[C@@H]1OCCC[C@@H]1[C@H](c1ccc(C(=O)O)cc1C)N2 [Example 6, 4-((4aR, 5R, 10bR)-3,4,4a, 5,6, 10b-hexahydro-9-methyl-2H pyrano[3,2-c]quinolin-5-yl)-3-methylbenzoic acid] | 0.1 to 0.5 µM |
